Assay results taken from patent US6251894A, “1-(1,2-disubstituted piperidinyl)-4 (fused imidazole)-piperidine derivatives” (Janssen Pharmaceuticals N.V., priority 1995, dated 2001).
Where two headings read alike, the source gives them in different places.

How the values were obtained:
[1] = system: Substance P Induced Plasma Extravasation; test: Antagonism of substance P induced plasma extravasation in guinea-pigs; assay type: in vivo, guinea-pig; conditions: Cavia porcellus, 1 hour prior to substance P
Procedure: Antagonism of Substance P Induced Plasma Extravasation in Guinea-pigs
Plasma travasation was induced by injection of substance P (2 mg/kg) in the femoral artery of female guinea-pigs. Evans Blue dye (30 mg/kg) was injected simultaneously. The test compound or solvent was administered subcutaneous (s.c.) or orally (p.o.) 1 hour prior to substance P injection. 10 minutes after challenge, the animals were checked for blue colouring (a direct measure for plasma extravasation) of the nose, the forepaws, and the conjunctiva. 30 minutes after challenge, the animals were sacrificed by CO2 gas inhalation and checked for blue colouring of the trachea and the urinary bladder. […]

[2] = system: Substance P Induced Relaxation of the Pig Coronary Arteries; test: Antagonism of substance P induced relaxation of the pig coronary arteries; conditions: 30 min incubation
Procedure: Antagonism of Substance P Induced Relaxation of the Pig Coronary Arteries
Segments of coronary arteries taken from pigs (killed by injection of an overdose of sodium pentobarbital) were inverted and mounted for recording of isometric tension in organ baths (volume 20 ml) with the endothelium at the outside. The preparations were bathed in Krebs-Henseleit solution. The solution was kept at 37° C. and gassed with a mixture of O2 /CO2 (95/5). After stabilisation of the preparations, prostaglandin F2α (10^-5 M) was administered to induce a contraction. This was repeated until contractile responses became stable. Then prostaglandin F2α was again administered and substance P (3×10^-10 M and 10^-9 M cumulatively) was added. Substance P induced endothelium dependent relaxations. After washing away the agonists, a known concentration of a compound of formula (I) was added. After an incubation period of 30 minutes, prostaglandin F2α (10^-5 M) and the same concentrations of substance P as described above were again administered in the presence of the compound to be tested.

[3] = po, 10 min, p.o., conjunctiva, read-out: lowest active dose (LAD), conjunctiva
[4] = po, 10 min, p.o., forepaws, read-out: lowest active dose (LAD), forepaws
[5] = po, 10 min, p.o., nose, read-out: lowest active dose (LAD), nose
[6] = po, 0.5 h, p.o., trachea, read-out: lowest active dose (LAD), trachea
[7] = po, 0.5 h, p.o., urinary bladder, read-out: lowest active dose (LAD), urinary bladder
[8] = test compound concentration 3 × 10^-9 (unit not given)
[9] = test compound concentration 3 × 10^-8 (unit not given)

SMILES | % inhibition of the response to 10^-9 M substance P [2, 8] [%] | further results
O=C(c1cc(C(F)(F)F)cc(C(F)(F)F)c1)N1CC[C@@H](N2CCC(C3c4ccccc4Cn4c3nc3ccccc34)CC2)C[C@H]1Cc1ccccc1 (mixture of isomers) [Compound 14, (±)-cis-1-[3,5-bis(trifluoromethyl)benzoyl]-4-[4-(6,11-dihydrobenzimidazo[1,2-b]isoquinolin-6-yl)-1-piperidinyl]-2-phenylmethyl)piperidine] | 56.6 | minimal effective dose [1, 3]: 10 mg/kg; minimal effective dose [1, 4]: 10 mg/kg; minimal effective dose [1, 5]: 10 mg/kg; minimal effective dose [1, 6]: 10 mg/kg; minimal effective dose [1, 7]: 10 mg/kg
O=C(c1cc(C(F)(F)F)cc(C(F)(F)F)c1)N1CC[C@@H](N2CCC(C3c4ccccc4Cn4c3nc3ccccc34)CC2)C[C@@H]1Cc1ccccc1 (mixture of isomers) [Compound 15, (±)-trans-1-[3,5-bis(trifluoromethyl)benzoyl]-4-[4-(6,11-dihydrobenzimidazo[1,2-b]isoquinolin-6-yl)-1-piperidinyl]-2-phenylmethyl)piperidine] | – | minimal effective dose [1, 3]: 10 mg/kg; minimal effective dose [1, 4]: 10 mg/kg; minimal effective dose [1, 5]: 10 mg/kg; minimal effective dose [1, 6]: 10 mg/kg; minimal effective dose [1, 7]: 10 mg/kg; % inhibition of the response to 10^-9 M substance P [2, 9]: 95.4%
Cc1cc(C)cc(C(=O)N2CC[C@H](N3CCC(=C4c5ccccc5CCn5ccnc54)CC3)C[C@@H]2Cc2ccccc2)c1 (racemic) [Compound 1, (±)-cis-4-[4-(5,6-dihydro-11H-imidazo [2,1-b][3]benzazepin-11-ylidene)-1-piperidinyl]-1-(3,5-dimethylbenzoyl)-2-(phenylmethyl)piperidine] | – | minimal effective dose ([1]; sc, 10 min, s.c., conjunctiva, read-out: lowest active dose (LAD), conjunctiva): 10 mg/kg; minimal effective dose ([1]; sc, 10 min, s.c., forepaws, read-out: lowest active dose (LAD), forepaws): 10 mg/kg; minimal effective dose ([1]; sc, 10 min, s.c., nose, read-out: lowest active dose (LAD), nose): 10 mg/kg; minimal effective dose ([1]; sc, 0.5 h, s.c., trachea, read-out: lowest active dose (LAD), trachea): 10 mg/kg; minimal effective dose ([1]; sc, 0.5 h, s.c., urinary bladder, read-out: lowest active dose (LAD), urinary bladder): 10 mg/kg; % inhibition of the response to 10^-9 M substance P [2, 9]: 52.3%
Cc1cc(C)cc(C(=O)N2CCC(N3CCC(=C4c5cccc(C)c5CCn5ccnc54)CC3)CC2Cc2ccccc2)c1 (stereo not shown) [Compound 29] | 8.1 | –
Cc1cc(C)cc(C(=O)N2CCC(N3CCC(=C4c5ccn(C)c5CCn5cc(C)nc54)CC3)CC2Cc2ccccc2)c1 (stereo not shown) [Compound 30] | 15.3 | –
Cc1cc(C)cc(C(=O)N2CCC(N3CCC(=C4c5ccc(Cl)cc5CCn5ccnc54)CC3)CC2Cc2ccccc2)c1 (stereo not shown) [Compound 31] | 82.7 | –
O=C(c1cc(C(F)(F)F)cc(C(F)(F)F)c1)N1CCC(N2CCC(=C3c4ccc(Cl)cc4CCn4ccnc43)CC2)CC1Cc1ccccc1 (stereo not shown) [Compound 32] | 71.6 | –
O=C(c1cc(C(F)(F)F)cc(C(F)(F)F)c1)N1CCC(N2CCC(C3c4ccccc4CCn4c3nc3ccccc34)CC2)CC1Cc1ccc(Cl)c(Cl)c1 (stereo not shown) [Compound 64] | 26.4 | –
Cc1cc(C)cc(C(=O)N2CCC(N3CCC(C4c5ccccc5CCn5c4nc4ccccc45)CC3)CC2Cc2ccccc2)c1 (stereo not shown) [Compound 65] | 27.3 | –
Cc1cc(C)cc(C(=O)N2CC[C@H](N3CCC(C4c5ccccc5CCn5c4nc4ccccc45)CC3)C[C@H]2Cc2ccccc2)c1 (stereo partly shown) [Compound 66] | 56.6 | –
O=C(c1cc(C(F)(F)F)cc(C(F)(F)F)c1)N1CCC(N2CCC(C3c4ccccc4CCn4c3nc3ccccc34)CC2)CC1Cc1ccc(F)c(F)c1 (stereo not shown) [Compound 67] | 64.4 | –
O=C(c1cc(C(F)(F)F)cc(C(F)(F)F)c1)N1CC[C@H](N2CCC(C3c4ccccc4CCn4c3nc3ccccc34)CC2)C[C@H]1Cc1ccc(F)c(F)c1 (stereo partly shown) [Compound 68] | 93.1 | –
Cc1cc(C)cc(C(=O)N2CCC(N3CCC(C4c5ccccc5Cn5c4nc4ccccc45)CC3)CC2Cc2ccccc2)c1 (stereo not shown) [Compound 69] | 8 | –
Cc1cc(C)cc(C(=O)N2CC[C@H](N3CCC(C4c5ccccc5Cn5c4nc4ccccc45)CC3)C[C@H]2Cc2ccccc2)c1 (stereo partly shown) [Compound 70] | 31.2 | –
O=C(c1ccccc1)N1CCC(N2CCC(C3c4ccccc4Cn4c3nc3ccccc34)CC2)CC1Cc1ccccc1 (stereo not shown) [Compound 73] | 2.8 | –
O=C(c1cccc(C(F)(F)F)c1)N1CCC(N2CCC(C3c4ccccc4Cn4c3nc3ccccc34)CC2)CC1Cc1ccccc1 (stereo not shown) [Compound 74] | 8.6 | –
O=C(c1ccccc1)N1CC[C@@H](N2CCC(C3c4ccccc4Cn4c3nc3ccccc34)CC2)C[C@@H]1Cc1ccccc1 (stereo partly shown) [Compound 75] | 13.7 | –

SMILES | % inhibition of the response to 10^-9 M substance P [2, 8] [%] | further results
CC(C(=O)N1CCC(N2CCC(=C3c4ccccc4CCn4ccnc43)CC2)CC1Cc1ccccc1)c1ccccc1 (stereo not shown) [Compound 85] | 1.8 | –
O=C(c1cccs1)N1CCC(N2CCC(C3c4ccccc4Cn4c3nc3ccccc34)CC2)CC1Cc1ccccc1 (stereo not shown) [Compound 91] | 9.2 | –
O=C(c1ccc2ccccc2c1)N1CCC(N2CCC(C3c4ccccc4Cn4c3nc3ccccc34)CC2)CC1Cc1ccccc1 (stereo not shown) [Compound 92] | 6.7 | –
O=C(c1cnc2ccccc2n1)N1CCC(N2CCC(C3c4ccccc4Cn4c3nc3ccccc34)CC2)CC1Cc1ccccc1 (stereo not shown) [Compound 93] | 3.1 | –
O=C(c1cc2ccccc2s1)N1CCC(N2CCC(C3c4ccccc4Cn4c3nc3ccccc34)CC2)CC1Cc1ccccc1 (stereo not shown) [Compound 94] | 8.2 | –
O=C(c1ccc2ncsc2c1)N1CCC(N2CCC(C3c4ccccc4Cn4c3nc3ccccc34)CC2)CC1Cc1ccccc1 (stereo not shown) [Compound 96] | 17.3 | –
Cc1cc(C(=O)N2CC[C@@H](N3CCC(C4c5ccccc5Cn5c4nc4ccccc45)CC3)C[C@@H]2Cc2ccccc2)no1 (stereo partly shown) [Compound 97] | 5.8 | –
O=C(c1ccc2ccccc2c1)N1CC[C@@H](N2CCC(C3c4ccccc4Cn4c3nc3ccccc34)CC2)C[C@@H]1Cc1ccccc1 (stereo partly shown) [Compound 98] | 23.2 | –
CC(C(=O)N1CC[C@@H](N2CCC(C3c4ccccc4Cn4c3nc3ccccc34)CC2)C[C@@H]1Cc1ccccc1)c1ccccc1 (stereo partly shown) [Compound 99] | 18.2 | –
O=C(Nc1cc(C(F)(F)F)cc(C(F)(F)F)c1)N1CC[C@@H](N2CCC(C3c4ccccc4Cn4c3nc3ccccc34)CC2)C[C@@H]1Cc1ccccc1 (stereo partly shown) [Compound 100] | 13.9 | –
Cc1c(C(=O)N2CC[C@@H](N3CCC(C4c5ccccc5Cn5c4nc4ccccc45)CC3)C[C@@H]2Cc2ccccc2)oc2ccccc12 (stereo partly shown) [Compound 101] | 11.8 | –
O=C(c1ccc2ncsc2c1)N1CC[C@@H](N2CCC(C3c4ccccc4Cn4c3nc3ccccc34)CC2)C[C@@H]1Cc1ccccc1 (stereo partly shown) [Compound 102] | 17 | –
O=C(c1ccc(Cl)c(Cl)c1)N1CC[C@@H](N2CCC(C3c4ccccc4Cn4c3nc3ccccc34)CC2)C[C@@H]1Cc1ccccc1 (stereo partly shown) [Compound 103] | 8.3 | –
Cc1cc(C)cc(C(=O)N2CCC(N3CCC(=C4c5ccccc5OCn5ccnc54)CC3)CC2Cc2ccccc2)c1 (stereo not shown) [Compound 104] | 83.0 | –
Cc1cc(C)cc(C(=O)N2CC[C@@H](N3CCC(C4c5ccccc5Cn5ccnc54)CC3)C[C@@H]2Cc2ccccc2)c1 (stereo partly shown) [Compound 109] | 13.5 | –
O=C(c1cc(C(F)(F)F)cc(C(F)(F)F)c1)N1CCC(N2CCC(C3c4ccccc4Cn4ccnc43)CC2)CC1Cc1ccccc1 (stereo not shown) [Compound 115] | 60.2 | –
O=C(c1cc(C(F)(F)F)cc(C(F)(F)F)c1)N1CC[C@@H](N2CCC(C3c4ccccc4Cn4ccnc43)CC2)C[C@@H]1Cc1ccccc1 (stereo partly shown) [Compound 116] | 69.6 | –
